Patent publication US8235110B2, “Preconditioning an oilfield reservoir” (Gushor Inc., priority 2006, dated 2012)
Converted amounts (≈) assume the structure as drawn.

Legend:
[1] = Heating agent in water solution in sealed pressure vessels at SAGD conditions (gas generation by decomposition); assay type: physicochemical
Protocol: For illustrative purposes, an experiment conducted to simulate the impact of a recovery process on selected preconditioning agents under reservoir conditions shall be described. […] In one such experiment, the preconditioning agent was citric acid which was dissolved in water to create the water solution.

[2] = cited from earlier work
[3] = 5 grams agent, 205° C., approx. 73 hours
[4] = 5.0 g agent and 50 milliliters water, three days at 205° C., SAGD conditions

O=C(O)CC(O)(CC(=O)O)C(=O)O [Citric Acid, citric acid]
methane in headspace gas [1, 3]: approximately 1500 ppm
propane in headspace gas [1, 3]: ~300 ppm
CO2 yielded in headspace ([1]; approximately 5 grams agent (50 milliliters of 10% solution), 205° C., approx. 73 hours, approx. 990 psi): approximately 1.16 liters
carbon dioxide yield scaled ([1]; from 1 cubic meter of 10% solution): 23,200 liters

CCCC(C)=O [MPK, methyl propyl ketone]
Solubility in Water at 20° C. [2]: 31 mg/mL (≈ 360 mM)

O=C(O)C(=O)O [oxalic acid dihydrate]
carbon dioxide produced on conversion [1, 4]: 1.25 moles CO2/mole of oxalic acid dehydrate
methane produced on conversion [1, 4]: 0.56 moles/mole of oxalic acid dihydrate
